Assays:
human eIF4E protein = biological target: T1, human eIF4E protein (Homo sapiens, UniProt P06730); experiment: Biochemical competitive binding assay (TR-FRET competition, EDA-m7GDP-ATTO-647N probe); details: read-out: hEIF4E TR-FRET IC50
T1 construct: purchased Novus NBP-45314
Summary of the method: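 IC50 values come from 4-parameter fits of the normalized 665/620 nm TR-FRET ratio. Compound was first incubated 15 min with 4 nM recombinant His-eIF4E bound to 2.5 nM Eu-anti-His antibody, then 15 min with 5 nM m7GDP-ATTO-647N tracer, in pH 7.5 HEPES buffer with 100 mM KCl, Tween-20 and BSA.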

[1] = system: COLO 205 colorectal tumor cells; experiment: Tumor cell viability inhibition assay (CellTiter-Glo 2.0, 72 hours); format: cell-based; details: Homo sapiens, COLO 205, 72 h, COLO 205 cell viability
Summary of the method: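 IC50 derived by 4-parameter fitting after normalizing luminescence to DMSO and max-inhibition wells. Compounds tested as 11 concentrations in 4-fold steps on COLO 205 cells seeded at 1500 per well in RPMI-1640/10% FBS; ATP content measured with CellTiter-Glo 2.0 after 72 h.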

T1 sequence (P06730 whole entry): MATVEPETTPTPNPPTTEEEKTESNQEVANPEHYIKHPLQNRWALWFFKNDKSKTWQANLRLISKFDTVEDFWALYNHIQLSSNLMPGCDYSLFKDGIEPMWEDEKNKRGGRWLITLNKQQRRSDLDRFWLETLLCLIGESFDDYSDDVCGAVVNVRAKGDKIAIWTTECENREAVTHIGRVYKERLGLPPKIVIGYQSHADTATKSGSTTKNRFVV

SMILES | IC50 (human eIF4E protein) [nM] | IC50 [1] [nM]
Cc1cc(-c2cc(Cl)ccc2OCCn2c(C)nc3c(c2=O)C[C@H](N2CCC(c4ncn(C)n4)CC2)CC3)c2scc(C(=O)O)c2n1 (single isomer, unassigned) [Compound 462] | < 100 | < 5000
Cc1cc(-c2cc(Cl)ccc2OCCn2c(C)nc3c(c2=O)C[C@@H](N2CCC(c4ncn(C)n4)CC2)CC3)c2scc(C(=O)O)c2n1 (single isomer, unassigned) [Compound 463] | < 100 | < 5000
Cc1cc(-c2cc(Cl)ccc2OCCn2c(C)nc3c(c2=O)C[C@H](N2CCC[C@H](c4ncccc4F)C2)CC3)c2scc(C(=O)O)c2n1 (single isomer, unassigned) [Compound 464] | < 100 | < 5000
Cc1cc(-c2cc(Cl)ccc2OCCn2c(C)nc3c(c2=O)C[C@H](N2CCC[C@@H](c4ncccc4F)C2)CC3)c2scc(C(=O)O)c2n1 (single isomer, unassigned) [Compound 465] | < 100 | < 5000
Cc1cc(-c2cc(Cl)ccc2OCCn2c(C)nc3c(c2=O)C[C@@H](N2CCC[C@@H](c4ncccc4F)C2)CC3)c2scc(C(=O)O)c2n1 (single isomer, unassigned) [Compound 466] | < 100 | < 5000
Cc1cc(-c2cc(Cl)ccc2OCCn2c(C)nc3c(c2=O)CC(N(C)C24CC5CC(CC(C5)C2)C4)CC3)c2scc(C(=O)O)c2n1 (single isomer, unassigned) [Compound 468] | < 100 | < 5000
Cc1cc(-c2cc(Cl)ccc2OCCn2c(C)nc3c(c2=O)C[C@H](N2CCC(n4cccn4)CC2)CC3)c2scc(C(=O)O)c2n1 (single isomer, unassigned) [Compound 473] | < 100 | < 5000
Cc1cc(-c2cc(Cl)ccc2OCCn2c(C)nc3c(c2=O)C[C@@H](N2CCC(n4cccn4)CC2)CC3)c2scc(C(=O)O)c2n1 (single isomer, unassigned) [Compound 474] | < 100 | < 5000
Cc1cc(-c2cc(Cl)ccc2OCCn2c(C)nc3c(c2=O)C[C@H](N2CCC(c4nccs4)CC2)CC3)c2scc(C(=O)O)c2n1 (single isomer, unassigned) [Compound 475] | < 100 | < 5000
Cc1cc(-c2cc(Cl)ccc2OCCn2c(C)nc3c(c2=O)C[C@@H](N2CCC(c4nccs4)CC2)CC3)c2scc(C(=O)O)c2n1 (single isomer, unassigned) [Compound 476] | < 100 | < 5000
Cc1csc([C@@H]2CCCN([C@H]3CCc4nc(C)n(CCOc5ccc(Cl)cc5-c5cc(C)nc6c(C(=O)O)csc56)c(=O)c4C3)C2)n1 (single isomer, unassigned) [Compound 481] | < 100 | < 5000
Cc1csc([C@H]2CCCN([C@H]3CCc4nc(C)n(CCOc5ccc(Cl)cc5-c5cc(C)nc6c(C(=O)O)csc56)c(=O)c4C3)C2)n1 (single isomer, unassigned) [Compound 482] | < 100 | < 5000
Cc1csc([C@H]2CCCN([C@@H]3CCc4nc(C)n(CCOc5ccc(Cl)cc5-c5cc(C)nc6c(C(=O)O)csc56)c(=O)c4C3)C2)n1 (single isomer, unassigned) [Compound 483] | < 100 | < 5000
Cc1csc([C@@H]2CCCN([C@@H]3CCc4nc(C)n(CCOc5ccc(Cl)cc5-c5cc(C)nc6c(C(=O)O)csc56)c(=O)c4C3)C2)n1 (single isomer, unassigned) [Compound 484] | < 100 | < 5000
Cc1cc(-c2cc(Cl)ccc2OCCn2c(C)nc3c(c2=O)C[C@H](N2CCC[C@H](c4cnn(C)c4)C2)CC3)c2scc(C(=O)O)c2n1 (single isomer, unassigned) [Compound 485] | < 100 | < 5000
Cc1cc(-c2cc(Cl)ccc2OCCn2c(C)nc3c(c2=O)C[C@H](N2CCC(c4cn(C)cn4)CC2)CC3)c2scc(C(=O)O)c2n1 (single isomer, unassigned) [Compound 486] | < 100 | > 20000
Cc1cc(-c2cc(Cl)ccc2OCCn2c(C)nc3c(c2=O)C[C@@H](N2CCC(c4cn(C)cn4)CC2)CC3)c2scc(C(=O)O)c2n1 (single isomer, unassigned) [Compound 487] | < 100 | > 20000
Cc1cc(-c2cc(Cl)ccc2OCCn2c(C)nc3c(c2=O)C[C@H](N2CCC(c4noc5ccc(F)cc45)CC2)CC3)c2scc(C(=O)O)c2n1 (single isomer, unassigned) [Compound 488] | < 100 | < 5000
Cc1cc(-c2cc(Cl)ccc2OCCn2c(C)nc3c(c2=O)C[C@H](N2CCC4(CC2)CC(F)(F)CO4)CC3)c2scc(C(=O)O)c2n1 (single isomer, unassigned) [Compound 489] | < 100 | < 5000
Cc1cc(-c2cc(Cl)ccc2OCCn2c(C)nc3c(c2=O)C[C@@H](N2CCC4(CC2)CC(F)(F)CO4)CC3)c2scc(C(=O)O)c2n1 (single isomer, unassigned) [Compound 490] | < 100 | < 5000

Further lines, results first:

IC50 (human eIF4E protein) [nM] | IC50 [1] [nM] | SMILES
< 100 | < 5000 | Cc1cc(-c2cc(Cl)ccc2OCCn2c(C)nc3c(c2=O)C[C@@H](N2CCC(c4ncco4)CC2)CC3)c2scc(C(=O)O)c2n1 (single isomer, unassigned) [Compound 461]
< 100 | < 5000 | Cc1cc(-c2cc(Cl)ccc2OCCn2c(C)nc3c(c2=O)C[C@@H](N2CCC[C@H](c4ncccc4F)C2)CC3)c2scc(C(=O)O)c2n1 (single isomer, unassigned) [Compound 467]
< 100 | < 5000 | Cc1cc(-c2cc(Cl)ccc2OCCn2c(C)nc3c(c2=O)C[C@H](N2CCCCC(F)(F)C2)CC3)c2scc(C(=O)O)c2n1 (single isomer, unassigned) [Compound 469]
< 100 | < 5000 | Cc1cc(-c2cc(Cl)ccc2OCCn2c(C)nc3c(c2=O)C[C@@H](N2CCCCC(F)(F)C2)CC3)c2scc(C(=O)O)c2n1 (single isomer, unassigned) [Compound 470]
< 100 | < 5000 | Cc1cc(-c2cc(Cl)ccc2OCCn2c(C)nc3c(c2=O)C[C@H](N2CCC[C@@H](OC(F)(F)F)C2)CC3)c2scc(C(=O)O)c2n1 (single isomer, unassigned) [Compound 471]
< 100 | < 5000 | Cc1cc(-c2cc(Cl)ccc2OCCn2c(C)nc3c(c2=O)C[C@@H](N2CCC[C@H](OC(F)(F)F)C2)CC3)c2scc(C(=O)O)c2n1 (single isomer, unassigned) [Compound 472]
< 100 | < 5000 | Cc1cc(-c2cc(Cl)ccc2OCCn2c(C)nc3c(c2=O)C[C@H](N2CCO[C@@H](COC(F)(F)F)C2)CC3)c2scc(C(=O)O)c2n1 (single isomer, unassigned) [Compound 477]
< 100 | < 5000 | Cc1cc(-c2cc(Cl)ccc2OCCn2c(C)nc3c(c2=O)C[C@H](N2CCO[C@H](COC(F)(F)F)C2)CC3)c2scc(C(=O)O)c2n1 (single isomer, unassigned) [Compound 478]
< 100 | < 5000 | Cc1cc(-c2cc(Cl)ccc2OCCn2c(C)nc3c(c2=O)C[C@@H](N2CCO[C@@H](COC(F)(F)F)C2)CC3)c2scc(C(=O)O)c2n1 (single isomer, unassigned) [Compound 479]
< 100 | < 5000 | Cc1cc(-c2cc(Cl)ccc2OCCn2c(C)nc3c(c2=O)C[C@@H](N2CCO[C@H](COC(F)(F)F)C2)CC3)c2scc(C(=O)O)c2n1 (single isomer, unassigned) [Compound 480]
